According to patent US6582717B1, “Drug delivery composition and device” (Massachusetts Institute of Technology, priority 2000, dated 2003):

Assay: Encapsulation efficiency of drug in PLGA / cyclodextrin delivery matrix
Type: physicochemical
[1] = PLGA and Hydroxy-propyl β-Cyclodextrin
[2] = PLGA and Methylated β-Cyclodextrin

N=C(NCCCCCCNC(=N)NC(=N)Nc1ccc(Cl)cc1)NC(=N)Nc1ccc(Cl)cc1.O=C(O)[C@H](O)[C@@H](O)[C@H](O)[C@H](O)CO.O=C(O)[C@H](O)[C@@H](O)[C@H](O)[C@H](O)CO [ChxDg, chlorhexidine digluconate]
Encapsulation Efficiency (%) (PGLA, no cyclodextrin): (10.2%) | Encapsulation Efficiency (amount encapsulated) (PGLA, no cyclodextrin): 204.7 µg | Encapsulation Efficiency (%) [1]: (6.1%) | Encapsulation Efficiency (amount encapsulated) [1]: 121.2 µg | Encapsulation Efficiency (%) [2]: (11.5%) | Encapsulation Efficiency (amount encapsulated) [2]: 230.3 µg

[H]/N=C(\N/C(=N/[H])NCCCCCCNC(=N)NC(=N)Nc1ccc(Cl)cc1)Nc1ccc(Cl)cc1 [Chx, chlorhexidine]
Encapsulation Efficiency (%) (PGLA, no cyclodextrin): (9.28%) | Encapsulation Efficiency (amount encapsulated) (PGLA, no cyclodextrin): 185.7 µg | Encapsulation Efficiency (%) [1]: (15.1%) | Encapsulation Efficiency (amount encapsulated) [1]: 302.8 µg | Encapsulation Efficiency (%) [2]: (9.02%) | Encapsulation Efficiency (amount encapsulated) [2]: 180.5 µg
